Assay results reported in publication PMC8626775, “Anti-schistosomal activities of quinoxaline-containing compounds: From hit identification to lead optimisation” (European Journal of Medicinal Chemistry, 2021).
pEC50: −log10 of the molar value. “And” between values parts separate entries of the source, which are not always exact repeats. Identical values can stand only once. “Also recorded” adds a separate entry of the source. Like-named read-outs stand apart in the source and are kept apart here.

What was measured:
S. mansoni schistosomula = S. mansoni schistosomula high-throughput phenotype and motility screen (Roboworm), 72 h; assay type: cell-based, Schistosoma mansoni; details: Schistosoma mansoni; for pEC50: read-out: EC50 on schistosomula (bounds and ranges given)
Protocol: Cercariae derived from the NMRI ([…]) Puerto Rican strain (PR-1) of S. mansoni were shed from two Biomphalaria glabrata strains, the NMRI albino and pigmented outbred strains, under intensified lighting conditions (1 h of incubation at 26 °C). Cercariae were then mechanically transformed into schistosomula as previously described.
High-throughput screening (HTS) of selected compounds was conducted as previously described. Briefly, newly transformed schistosomula were distributed in a 384-well tissue culture plate (PerkinElmer, cat 6007460, seeding density of 120 parasites/well). Each compound (at a single concentration or two-fold titrations) was transferred into individual wells alongside the positive and negative controls (AUR at 10 μM final concentration in 0.625% DMSO and 0.625% DMSO, respectively). Schistosomula/compound co-cultures were then incubated at 37 °C for 72 h in a humidified atmosphere containing 5% CO2. Following the co-culture period, automatic assessment of compound-induced schistosomula motility and phenotypic changes were conducted with the high-content imaging platform Roboworm using the image analysis model previously described by Paveley et al..

HepG2 cells = test: HepG2 MTT cytotoxicity assay; details: for Toxicity on HepG2 in words: 24 h; for Selectivity Index (SI) Adult worms: HepG2 CC50 versus adult worm EC50; for Selectivity Index (SI) Somula: HepG2 CC50 versus schistosomula EC50
Protocol: Initially the cells were handled under sterile conditions and grown at 37 °C in a humidified atmosphere containing 5% CO2. Cytotoxicity was evaluated by way of a 3-(4, 5- dimethylthiazol-2-yl)-2,5-diphenyl tetrazolium bromide (MTT) assay as previously described. The cells were counted in a dual chamber counting slide using the BIORAD TC-10 Automated cell counter, seeded in a 96-well plate (Fisher Scientific, Loughborough, UK) at a density of 2 × 10^4 cells/well and incubated in an atmosphere of 5% CO2 at 37 °C. […] The absorbance readings (at 570 nm) of the soluble formazan crystals were recorded using PolarStar Omega plate reader (BMG-Labtech). […] The latter was used to calculate the selectivity index (SI) of the compounds presented herein.

S. mansoni adult worms = test: S. mansoni adult worm motility screen (WormassayGP2), 72 h; assay type: cell-based, Schistosoma mansoni; details: Schistosoma mansoni
Source text: Mice (Mus musculus HsdOLa:TO - Tuck Ordinary; Envigo, UK) were used for the mammalian-specific propagation of the S. mansoni life cycle. Experimental animals were infected with 4000 or 180 S. mansoni cercariae/mouse and perfused three- or seven-weeks post-infection to obtain S. mansoni juvenile or adult worms, respectively. Preparation steps following perfusion have been described previously. Briefly, the parasite material was washed three times with pre-warmed adult worm media (DMEM (Gibco, Paisley, UK) supplemented with 10% (v/v) Fetal Calf Serum (FCS, Gibco, Paisley, UK), 1% (v/v) L-glutamine (Gibco, Paisley, UK) and an antibiotic mixture (150 Units/ml penicillin and 150 μg/ml streptomycin; Gibco, UK)) to remove residual host contamination and incubated in a humidified environment containing 5% CO2 at 37 °C for at least 1 h.
For the evaluation of anti-schistosomal activity on the adult stage of the parasite, 7-wk old worms were transferred into 48 well tissue culture plates (1–3 worm pairs/well, in duplicate). […] DMSO (0.5%) and praziquantel (10 μM in 0.5% DMSO) were also included as negative and positive control treatments. Treated adult worms were incubated for 72 h in a humidified environment containing 5% CO2 at 37 °C. Parasite motility after compound treatment was assessed by a digital image processing-based system (WormassayGP2), modified after Wormassay. Following compound-parasite co-incubation, eggs were collected, fixed in formalin (10% v/v formaldehyde) and enumerated aiming to collect further information on any compound-induced effects on parasite fecundity and IVLE production.

[1] = tested on: adult S. japonicum male worms; test: In vitro screening of S. japonicum adults at 100 nM (WormAssay motility, descriptors, severity score); assay type: cell-based, Schistosoma japonicum; design: key to DESCRIPTORS 48 h / DESCRIPTORS 72 h: Dark = dark; S = Slow; S-uncoord = uncoordinated slow movements; O-uncoord = uncoordinated fast movements; On sides = male worms are not adhering to dish with ventral sucker; Shrunk = worms are not flexing and are smaller than usual; Teg damage = outer surface (tegument of the worm) is damaged; Deg= degenerating; D = Dead; details: for Effect on S. japonicum adult male worms: 5, 24, 48 and 72 h; for SEVERITY SCORES 5 h / SEVERITY SCORES 24 h / SEVERITY SCORES 48 h / SEVERITY SCORES 72 h: max = 4, one line per replicate
Protocol: (§1) For each species, parasite recovery involved reverse perfusion of the hepatic portal and mesenteric system using DMEM (Fisher Scientific). Parasites were washed six times with Basch 169 medium supplemented with 100 U/ml penicillin and 100 μg/ml streptomycin before manually distributing approximately 5 males per well (on occasion 1 or 2 females might also be present) of a 24-well plate (Corning Costar 3524). […] The next morning, a final concentration of 100 nM compound (in 1 μL DMSO) was added to each well and the final volume made up to 2 ml with Basch 169 medium supplemented with antibiotics and FBS. Each compound was tested in triplicate (except for some instances tested in duplicate). […] The phenotypic characterisation of compound effects focused on male worms due to the greater range of their motility characteristics that include flexing, bending, stretching, sucker walking and adherence, compared to the more sedentary female worms. In addition to descriptors, WormAssay, as adapted for the schistosome, was used to measure average worm motility per well [72, 73].

[2] = tested on: Adult S. haematobium worms; test: In vitro screening of S. haematobium adults at 100 nM (WormAssay motility, descriptors, severity score); assay type: cell-based, Schistosoma haematobium
Protocol: as §1

[3] = 72 h, Table 2, average of phenotype and motility EC50, 72 h, read-out: Activity on schistosomula (EC50, μM - 72 h) Average
[4] = 72 h, Table 2, motility, 72 h, three replicate titrations (0.313–10 μM), read-out: Activity on schistosomula (EC50, μM - 72 h) M
[5] = 72 h, Table 2, phenotype, 72 h, three replicate titrations (0.313–10 μM), read-out: Activity on schistosomula (EC50, μM - 72 h) P
[6] = Table 5, Series C, read-out: Anti-schistosomal activity EC50 Schistosomula (μM) Motility
[7] = Table 5, Series C, read-out: Anti-schistosomal activity EC50 Schistosomula (μM) Phenotype
[8] = Table 5, Series C, read-out: Anti-schistosomal activity EC50 Adult (nM) Motility
[9] = Table 2, 72 h, titrations 0.0095–5 μM, WormassayGP2, read-out: Activity on adult worms (EC50, μM - 72 h) Motility
[10] = Table 4, Series A, read-out: Anti-schistosomal activity EC50 Schistosomula (μM) Motility
[11] = Table 4, Series A, read-out: Anti-schistosomal activity EC50 Schistosomula (μM) Phenotype
[12] = Table 4, Series A, read-out: Anti-schistosomal activity EC50 Adult (nM) Motility
[13] = S. japonicum, one line per replicate
[14] = Table 3, read-out: Anti-schistosomal activity EC50 (μM) Schistosomula Motility
[15] = Table 3, read-out: Anti-schistosomal activity EC50 (μM) Schistosomula Phenotype

| SMILES | EC50 (S. mansoni schistosomula; [3]) | EC50 (S. mansoni schistosomula; [4]) | EC50 (S. mansoni schistosomula; [5]) | pEC50 (S. mansoni schistosomula; 72 h) | Toxicity on HepG2 in words (HepG2 cells) | EC50 (S. mansoni schistosomula; [6]) | EC50 (S. mansoni schistosomula; [7]) | EC50 (S. mansoni adult worms; [9]) | Selectivity Index (SI) Somula (HepG2 cells) | EC50 (S. mansoni schistosomula; [10]) | EC50 (S. mansoni schistosomula; [11]) | EC50 (S. mansoni adult worms; [12]) | Effect on S. japonicum adult male worms [1] | SEVERITY SCORES 5 h ([1]; S. japonicum) | SEVERITY SCORES 24 h ([1]; S. japonicum, 24 h) | SEVERITY SCORES 48 h ([1]; S. japonicum) | SEVERITY SCORES 72 h ([1]; S. japonicum) | also measured |
| --- | --- | --- | --- | --- | --- | --- | --- | --- | --- | --- | --- | --- | --- | --- | --- | --- | --- | --- |
| Nc1ccc2nc(Nc3ccc(Cl)c(Cl)c3)c(Nc3ccc(Cl)c(Cl)c3)nc2c1 [Compound 22a, N^2, N^3-bis(3,4-dichlorophenyl)quinoxaline-2,3,6-triamine] | 3.38 µM | 3.25 µM | 3.51 µM | < 5.70 | low toxicity | – | – | – | – | – | – | – | – | – | – | – | – | – |
| CC(=O)Nc1ccc2nc(Nc3ccc(Cl)c(Cl)c3)c(Nc3ccc(Cl)c(Cl)c3)nc2c1 [Compound 22c, N-(2,3-bis((3,4-dichlorophenyl)amino)quinoxalin-6-yl)acetamide] | 2.91 µM | 2.79 µM | 3.04 µM | < 5.70 | – | 2.79 µM | 3.04 µM | 704 nM | 1.57 | – | – | – | – | – | – | – | – | EC50 (S. mansoni adult worms; [8]): 704 nM; Selectivity Index (SI) Adult worms (HepG2 cells): 6.52 |
| CCCCCC(=O)Nc1ccc2nc(Nc3ccc(Cl)c(Cl)c3)c(Nc3ccc(Cl)c(Cl)c3)nc2c1 [Compound 22d, N-(2,3-bis((3,4-dichlorophenyl)amino)quinoxalin-6-yl)hexanamide] | 1.41 µM | 1.8 µM | 1.02 µM | – | low toxicity | 1.8 µM | 1.02 µM | 318 nM | 1.72 | – | – | – | – | – | – | – | – | EC50 (S. mansoni adult worms; [8]): 318 nM; Selectivity Index (SI) Adult worms (HepG2 cells): 7.65 |
| O=C(Nc1ccc2nc(Nc3ccc(Cl)c(Cl)c3)c(Nc3ccc(Cl)c(Cl)c3)nc2c1)c1ccco1 [Compound 22f, N-(2,3-bis((3,4-dichlorophenyl)amino)quinoxalin-6-yl)furan-2-carboxamide] | 1.95 µM | 2 µM | 1.91 µM | – | – | 2 µM | 1.91 µM | – | 2.91 | – | – | – | – | – | – | – | – | – |
| O=[N+]([O-])c1ccc2nc(Nc3ccc(Cl)cc3)c(Nc3ccc(Cl)cc3)nc2c1 [Compound 26, N^2, N^3-bis(4-chlorophenyl)-6-nitroquinoxaline-2,3-diamine] | 0.41 µM | 0.39 µM | 0.42 µM | – | – | – | – | 20.3 nM | – | 0.39 µM | 0.42 µM | 20.3 nM | decreased motility starting at 48 h | 0 | 0 | 1 | 2 and 1 | DESCRIPTORS 48 h [1, 13]: S; DESCRIPTORS 72 h [1, 13]: S, on sides and S |
| O=[N+]([O-])c1ccc2nc(Nc3ccc(F)cc3)c(Nc3ccc(F)cc3)nc2c1 [Compound 28, N2, N3-bis(4-fluorophenyl)-6-nitroquinoxaline-2,3-diamine] | 1.77 µM | 1.4 µM | 2.14 µM | – | low toxicity | – | – | 382 nM | – | 1.4 µM | 2.14 µM | 382 nM | – | – | – | – | – | – |
| O=[N+]([O-])c1ccc2nc(Nc3ccc(C(F)(F)F)cc3)c(Nc3ccc(C(F)(F)F)cc3)nc2c1 [Compound 31, 6-nitro-N2, N3-bis(4-(trifluoromethyl)phenyl)quinoxaline-2,3-diamine] | 0.31 µM | 0.28 µM | 0.34 µM | – | – | – | – | 7.7 nM | – | 0.28 µM | 0.34 µM | 7.7 nM | essentially lethal | 0 | 0 | 4 | 4 | Onset time on S. japonicum [1]: ≤ 24 h; DESCRIPTORS 24 h ([1]; S. japonicum, 24 h, one line per replicate): Dark, S, on sides; DESCRIPTORS 48 h [1, 13]: Dying, deg; DESCRIPTORS 72 h [1, 13]: Dying, D; Onset time on S. haematobium [2]: ≤ 24 h; Effect on S. haematobium adult worms ([2]; 5, 24, 48 and 72 h): best activity; SEVERITY SCORES 5 h ([2]; S. haematobium, 5 h, max = 4, one line per replicate): 0; SEVERITY SCORES 24 h ([2]; S. haematobium, 24 h, max = 4, one line per replicate): 2; DESCRIPTORS 24 h ([2]; S. haematobium, 24 h, one line per replicate): S, on sides; also recorded: S, onsides; SEVERITY SCORES 48 h ([2]; S. haematobium, 48 h, max = 4, one line per replicate): 2; DESCRIPTORS 48 h ([2]; S. haematobium, 48 h, one line per replicate): S, on sides; also recorded: S, onsides; SEVERITY SCORES 72 h ([2]; S. haematobium, 72 h, max = 4, one line per replicate): 3; DESCRIPTORS 72 h ([2]; S. haematobium, 72 h, one line per replicate): S, dark on sides |
| COc1ccc(Nc2nc3ccc([N+](=O)[O-])cc3nc2Nc2ccc(OC)c(C(F)(F)F)c2)cc1C(F)(F)F [Compound 35, N2, N3-bis(4-methoxy-3-(trifluoromethyl)phenyl)-6-nitroquinoxaline-2,3-diamine] | 0.66 µM | 0.69 µM | 0.63 µM | – | – | – | – | 44 nM | – | 0.69 µM | 0.63 µM | 44 nM | no appreciable activity | 0 | 0 | 0 | 0 | – |
| O=[N+]([O-])c1ccc2nc(NCc3ccccc3)c(NCc3ccccc3)nc2c1 [Compound 36, N2, N3-dibenzyl-6-nitroquinoxaline-2,3-diamine] | 2.91 µM | 2.64 µM | 3.19 µM | < 5.70 | – | – | – | – | 1.74 | – | – | – | – | – | – | – | – | EC50 (S. mansoni schistosomula; [14]): 2.64 µM; EC50 (S. mansoni schistosomula; [15]): 3.19 µM |
| O=[N+]([O-])c1ccc2nc(NCCc3ccccc3)c(NCCc3ccccc3)nc2c1 [Compound 37, 6-nitro-N2, N3-diphenethylquinoxaline-2,3-diamine] | 1.84 µM | 1.47 µM | 2.2 µM | – | – | – | – | 195 nM | – | – | – | – | – | – | – | – | – | EC50 (S. mansoni schistosomula; [14]): 1.47 µM; EC50 (S. mansoni schistosomula; [15]): 2.2 µM; EC50 (S. mansoni adult worms; Table 3, read-out: Anti-schistosomal activity EC50 (μM) Adult Motility): 195 nM |
